Measured values: publication PMC6072853 (Frontiers in Pharmacology, 2018)

Experiments:
SiHa = test: MTT antiproliferative assay, SiHa; type: cell-based, human; settings: Homo sapiens, 72 h, read-out: Growth inhibition (%) ± SEM
Excerpt: (§1) Gynecological cancer cell lines, including ovarian (A2780), cervical (HeLa), and breast cancer cell lines (MCF7, T47D, MDA-MB-231, and MDA-MB-361) were purchased from the European Collection of Authenticated Cell Cultures (ECACC, Salisbury, United Kingdom). Additional cervical cell lines (SiHa and C33A) and a non-cancerous immortalized, mammary gland epithelial cell line (hTERT-HME1) were purchased from LGC Standards GmbH (Wesel, Germany). Non-cancerous fibroblast cells (MRC-5) were also obtained from the ECACC. All cells were cultured in minimal essential medium supplemented with 10% fetal bovine serum, 1% non-essential amino acids, and 1% antibiotic-antimycotic mixture, in humidified air containing 5% CO2 at 37°C. Immortalized hTERT-HME1 cells were maintained in serum-free mammary epithelial cell growth medium (MEGM) supplemented with insulin, human epidermal growth factor (hEGF), hydrocortisone, bovine pituitary extract, and an antibiotic-antimycotic mixture. All the medium and supplements were purchased from Lonza Group Ltd. (Basel, Switzerland).
(§2) The antiproliferative properties of the compounds were assessed by an MTT assay ([Mosmann, 1983]). Cells were seeded onto 96-well microplates at a density of 10,000 cells/well (MDA-MB-361 and C33A) or 5,000 cells/well (all other cell lines). After an overnight incubation, fresh medium containing the test compounds (at a concentration of 10 or 30 μM) was added. After incubation for 72 h at 37°C in humidified air, [3-(4,5-dimethylthiazol-2-yl)-2,5-diphenyltetrazolium bromide] (MTT) solution (5 mg/mL) was added. Purple formazan crystals were formed by the living cells during a 4 h contact period, which were assayed by spectrophotometry after having been dissolved in 100 μL DMSO. Untreated cells served as control, and cisplatin (CIS) (Ebewe Pharma GmbH, Unterach, Austria) was used as a reference compound. […] Two independent measurements were performed with five parallel wells. To present preliminary data concerning tumor selectivity of the potent compounds, the procedure was repeated on MRC-5 fibroblast and hTERT-HME1 immortalized mammary gland epithelial cells under the same experimental conditions.

MCF-7 = test: MTT antiproliferative assay, MCF-7; type: cell-based, human; settings: Homo sapiens, MCF7, 72 h, read-out: Growth inhibition (%) ± SEM; for inhibition at 10 µM: MCF-7, 10 μM; for inhibition at 30 µM: MCF-7, 30 μM
Excerpt: as §1, §2

MDA-MB-231 = test: MTT antiproliferative assay, MDA-MB-231; type: cell-based, human; settings: Homo sapiens, 72 h, read-out: Growth inhibition (%) ± SEM; for inhibition at 10 µM: MDA-MB-231, 10 μM; for inhibition at 30 µM: MDA-MB-231, 30 μM
Excerpt: as §1, §2

MDA-MB-361 = test: MTT antiproliferative assay, MDA-MB-361; type: cell-based, human; settings: Homo sapiens, 72 h, read-out: Growth inhibition (%) ± SEM; for inhibition at 10 µM: MDA-MB-361, 10 μM; for inhibition at 30 µM: MDA-MB-361, 30 μM
Excerpt: as §1, §2

T47D = test: MTT antiproliferative assay, T47D; type: cell-based, human; settings: Homo sapiens, 72 h, read-out: Growth inhibition (%) ± SEM
Excerpt: as §1, §2

HeLa cells [1] = test: Lactate dehydrogenase (LDH) cytotoxicity assay; type: cell-based, human; settings: 24 h
Description: The direct cytotoxic effects of the test agents were determined by a lactate dehydrogenase (LDH) assay. Cells were seeded onto 96-well microplates at a density of 5,000 cells/well and were incubated overnight, after which the medium containing the test compounds at proper concentrations was added. After incubation for 24 h, the activity of LDH released by the treated cells was determined by a commercially available colorimetric kit according to the manufacturer’s instructions (Hoffmann-La Roche Ltd., Basel, Switzerland). Untreated cells served as control, while detergent Triton X-100 and CIS were used as reference agents.

HeLa cells [2] = test: Flow cytometric analysis of cell cycle; type: cell-based, human
Description: The distribution of cells in different cell cycle phases (subG1, G1, S and G2/M) was analyzed via the measurement of cellular DNA content by flow cytometry. HeLa cells were seeded onto 6-well plates and allowed to stand for an overnight. The cells were treated with the selected compounds for 24, 48, or 72 h. Then cells were harvested, washed and fixed in ice cold 70% ethanol and stored at −20°C at least for an hour. Next, a DNA staining solution (containing distilled water, propidium-iodide, Triton-X100, sodium citrate, and ribonuclease-A) was added to each sample and stored in the dark at room temperature for an hour. Stained cells were analyzed by flow cytometry (Partec CyFlow, Partec GmbH, Munster, Germany) with at least 20,000 cells being evaluated for each analysis. Data processing was performed using the ModFit LT 3.3.11 software (Verity Software House, Topsham, ME, United States).

caspase-3 = test: Caspase-3 activity colorimetric assay; type: cell-based, human; settings: HeLa
Description: (§3) In order to detect, whether the test compounds induce programmed cell death, the activity of caspase-3 was determined by a colorimetric assay. To elucidate the exact pathway of apoptosis, activities of caspase-8 and caspase-9 were additionally determined by colorimetric kits. In all cases approximately 12 million cells were treated with appropriate concentrations of the compounds for 24 or 72 h. After the treatment, the cells were scraped and the enzyme activities were determined by means of colorimetric assays mentioned above. All kits were purchased from Abnova Corp. (Taipei, Taiwan) and used in accordance with the instructions of the manufacturer.

caspase-9 = test: Caspase-9 activity colorimetric assay; type: cell-based, human; settings: HeLa
Description: as §3

tubulin = test: Tubulin polymerization assay (cell-free); type: biochemical; settings: cell-free system, compared to untreated control
Description: In order to determine the direct action of the test compounds on the microtubular system, an in vitro tubulin polymerization assay was performed using a commercially available kit (Cytoskeleton Inc., Denver, CO, United States) in accordance with the provider’s instructions. The assay reactions were performed on a pre-warmed (37°C), UV-transparent 96-well microplate. Ten microliters of the test solutions were placed on the wells supplemented with 2 mM MgCl2, 0.5 mM ethylene glycol tetraacetic acid (EGTA), 1 mM guanosine triphosphate (GTP) and 10.2% glycerol. Ten microliters of general tubulin buffer was used as untreated control, and paclitaxel (PAC) served as the reference compound. The polymerization reaction was initiated by adding 100 μL of 3.0 mg/mL tubulin in 80 mM PIPES, pH 6.9, to each sample. Absorbance of the samples was measured per minute, at 340 nm, using a 60-min kinetic measurement protocol. Each sample was prepared in two parallels. To characterize the process, polymerization curves were fitted to the measured data. The highest difference between the absorbances measured at two consecutive time points was regarded as Vmax (Δabsorbance/min) for the tested compound. A clinically applied reference agent, PAC was used at a relatively high concentration (10 μM) as recommended by the manufacturer. […]. […]

Row | Compound | inhibition at 10 µM (SiHa) | inhibition at 30 µM (SiHa) | inhibition at 10 µM (MCF-7) | inhibition at 30 µM (MCF-7) | inhibition at 10 µM (MDA-MB-231) | inhibition at 30 µM (MDA-MB-231) | inhibition at 10 µM (MDA-MB-361) | inhibition at 30 µM (MDA-MB-361) | inhibition at 10 µM (T47D) | inhibition at 30 µM (T47D) | LDH release (HeLa cells [1]; 1.5 μM) | effect on cell cycle phase distribution (HeLa cells [2]; 24 h) | effect on cell cycle phase distribution (HeLa cells [2]; 48 h) | effect on cell cycle phase distribution (HeLa cells [2]; 72 h) | caspase-3 activity (caspase-3; 72 h) | caspase-9 activity (caspase-9; 72 h) | effect on tubulin polymerization (tubulin) | LDH release (HeLa cells [1]; 3.0 or 5.0 μM) | caspase-3 activity (caspase-3; 24 h, 5.0 μM) | caspase-9 activity (caspase-9; 24 h)
1 | C[C@]12CC[C@H]3[C@@H](CCC4=CC(=O)CC[C@@H]43)[C@@H]1CC[C@@H]2O [Compound 1, 19-nortestosterone, reference compound] | < 20% | 20.7 ± 2.6% | < 20% | < 20% | < 20% | 21.4 ± 1.2% | < 20% | < 20% | < 20% | < 20% | substantial LDH release | significant decrease in the G1 and a moderate but significant increase in the G2/M phase cell population | these changes became more pronounced | concentration-dependent accumulation of hypodiploid cells | increased significantly | activated the initiator caspases | significant acceleration of tubulin polymerization |  |  | 
2 | C[C@]12CC[C@H]3[C@@H](CCC4=CC(=O)CC[C@@H]43)[C@@H]1CC[C@H]2Cl [Compound 3] | < 20% | 26 ± 2.3% | < 20% | 36.9 ± 2% | < 20% | < 20% | < 20% | 21.8 ± 2.5% | < 20% | < 20% |  | did not have any remarkable effect on cell cycle | substantially elevated increase of the subG1 population at the expense of G1 cells |  |  |  | significant acceleration of tubulin polymerization | significant | enhanced caspase-3 activity | significantly elevated
